These results are taken from patent US7632782B2, “Synergistically acting herbicidal mixtures” (BASF Aktiengesellschaft, priority 2002, dated 2009).

What all share (type): in vivo
For one experiment, the system named is Avena fatua. The experiment can be described thus: Herbicidal action, post-emergence treatment, greenhouse. The text has this:
(§1) The mixtures according to the invention were applied pre- and/or post-emergence (foliar treatment). The herbicidal compounds of component B) and, if desired, of component C) as well as the safener D) were applied in the formulation in which they are present as commercially available product (s).
(§2) The herbicidally active compounds of components A), B) and, if desired, C), and, if desired D), were applied in succession or jointly, in the latter case in some cases as a tank mix and in some cases as a readymix, in the form of emulsions, aqueous solutions or suspensions, the vehicle being water (300-400 l/ha). In the case of the field trials, application was effected with the aid of a mobile plot sprayer.
(§3) The test period extended over 3 to 8 weeks, and the stands were also observed at later points in time.
(§4) Damage by the herbicidal compositions was evaluated with reference to a scale of 0% to 100% in comparison with untreated control plots. 0 means no damage and 100 means complete destruction of the plants.
(§5) In these examples, the value […] at which only an additive effect of the individual active ingredients is to be expected was calculated by the method of S. R. Colby (Calculating synergistic and antagonistic responses of herbicide combinations, Weeds 15, 20 pp (1967)).
(§6) [formula] where • X=Percentage of the herbicidal action of component A) at an application rate of a; • Y=Percentage of the herbicidal action of component B), and, if desired, C), and, if desired, D) at an application rate of b, and, if desired, c, and, if desired, d; • E=expected herbicidal action of component A)+B), and, if desired C), and; if desired, D) at rates of application a+b, and, if desired, c and, if desired, d (in %).
(§7) If the value observed exceeds the value E calculated in accordance with Colby's formula, then synergism is present.

Experiment [1] relates to Pharbitis purpurea. The experiment is described as above.
Text: as §1, §2, §3, §4, §5, §6, §7

A further experiment has as its system Abutilon theophrasti. Described as above.
Text: as §1, §2, §3, §4, §5, §6, §7

In the next experiment the test system is Polygonum persicaria. Put plainly: Herbicidal action, post-emergence treatment, field. Conditions: Table 10, application rate 1.95 g/ha ai.
Text: as §1, §2, §3, §4, §5, §6, §7

The subject of experiment [2] is Bidens pilosa. Put plainly: Herbicidal action, post-emergence treatment, field.
Text: as §1, §2, §3, §4, §5, §6, §7

The subject of the next experiment is Brachiaria plantaginea. The experiment can be described thus: Herbicidal action, post-emergence treatment, field. Conditions: Table 15, application rate 3.91 g/ha ai.
Text: as §1, §2, §3, §4, §5, §6, §7

The next experiment has as its system Commelina benghalensis. The experiment can be described thus: Herbicidal action, post-emergence treatment, field. Conditions: Table 5, application rate 7.81 g/ha ai.
Text: as §1, §2, §3, §4, §5, §6, §7

Experiment [3] concerns Pharbitis purpurea. The experiment can be described thus: Herbicidal action, post-emergence treatment, field. Conditions: Table 9, application rate 3.91 g/ha ai.
Text: as §1, §2, §3, §4, §5, §6, §7

The subject of experiment [4] is Bidens pilosa. The experiment can be described thus: Herbicidal action, post-emergence treatment, greenhouse. Conditions: Table 12, application rate 7.81 g/ha ai.
Text: as §1, §2, §3, §4, §5, §6, §7

Another experiment concerns Galium aparine. The experiment is described as above. Conditions: Table 11, application rate 7.81 g/ha ai.
Text: as §1, §2, §3, §4, §5, §6, §7

A further experiment has as its system Amaranthus retroflexus. The description is as above.
Text: as §1, §2, §3, §4, §5, §6, §7

[5] abbreviates: Table 3, application rate 1.95 g/ha ai.
Setting [6] is: Table 4, application rate 0.98 g/ha ai.
Setting [7] is: Table 3, application rate 3.91 g/ha ai.
Setting [8] is: Table 4, application rate 1.95 g/ha ai.
Setting [9] is: Table 6, application rate 3.91 g/ha ai.
Where [10] appears, read: Table 8, application rate 1.95 g/ha ai.
The mark [11] stands for this setting: Table 14, application rate 3.91 g/ha ai.

For `COc1cc(OC)nc(NC(=O)NS(=O)(=O)c2cc(NC=O)ccc2C(=O)N(C)C)n1` [Compound II, foramsulfuron, reference compound], the “Avena fatua Damage [%]” value with Avena fatua (setting [5]) was 50%; in the experiment on Avena fatua (setting [6]), 30%. Besides, the “Pharbitis purpurea Damage [%]” value in the experiment on Pharbitis purpurea [1] (setting [5]) amounted to 80%. Moreover, the “Abutilon theophrasti Damage [%]” value in the experiment on Abutilon theophrasti (setting [6]) worked out at 30%.

Regarding `Cc1c(C(=O)c2cnn(C)c2O)ccc(S(C)(=O)=O)c1C1=NOCC1` [Ia.29, 4-[2-methyl-3-(4,5-dihydroisoxazol-3-yl)-4-methylsulfonyl-benzoyl]-1-methyl-5-hydroxy-1H-pyrazole], the “Polygonum persicaria Damage [%]” value in the experiment with Polygonum persicaria worked out at 95%. The “Bidens pilosa Damage [%]” value in the experiment with Bidens pilosa [2] (Table 7, application rate 3.91 g/ha ai) was 30%; with Bidens pilosa [2] (Table 13, application rate 7.81 g/ha ai) it was 60%; in the experiment on Bidens pilosa [4] it was 60%. In addition, in the experiment with Brachiaria plantaginea, the “Brachiaria plantaginea Damage [%]” value amounted to 80%. Moreover, the “Commelina benghalensis Damage [%]” value with Commelina benghalensis came to 40%. In addition, the “Pharbitis purpurea Damage [%]” value with Pharbitis purpurea [3] and in the experiment on Pharbitis purpurea [1] (setting [7]) was 70% throughout. The “Avena fatua Damage [%]” value was determined as 50% in the experiment on Avena fatua (setting [7]) and 25% in the experiment on Avena fatua (setting [8]). Besides, the “Galium aparine Damage [%]” value in the experiment with Galium aparine was determined as 30%. Moreover, the results for the “Amaranthus retroflexus Damage [%]” value in the experiment on Amaranthus retroflexus (setting [9]), in the experiment with Amaranthus retroflexus (setting [10]) and in the experiment with Amaranthus retroflexus (setting [11]) were 60%, 40% and 60%, respectively. For the same compound, the “Abutilon theophrasti Damage [%]” value in the experiment on Abutilon theophrasti (setting [8]) came out at 40%; with Abutilon theophrasti (setting [9]), 80%; with Abutilon theophrasti (setting [10]), 40%; in the experiment with Abutilon theophrasti (Table 11, application rate 7.81 g/ha ai), 95%; with Abutilon theophrasti (Table 12, application rate 7.81 g/ha ai) it was 95%; in the experiment with Abutilon theophrasti (setting [11]), 80%.
